Test: Body weight in MBP EAE rat model
Assay type: in vivo, Lewis rats
Conditions: Group 2F; at study termination
Excerpt: (§1) Body weight loss can be the first sign of disease initiation, while a sudden marked weight gain tends to accompany remission of EAE symptoms. Therefore, determination of individual body weights of animals was made shortly before EAE induction on study day 0 (study commencement) and thereafter on a daily basis throughout the entire 21-day observation period.
as §1, with “This working EXAMPLE discloses the weight change of rats subjected to the experiment described in Example 7. Body” for “Body”, “and” for “and thereafter”, “the” for “the entire”

## C[C@@H]1C[C@H]2[C@@H]3CCC4=CC(=O)C=C[C@]4(C)[C@@]3(F)[C@@H](O)C[C@]2(C)[C@@]1(O)C(=O)CO [Dexamethasone]
  mean body weight lost: 2%
